# ChEMBL document CHEMBL2331399, “Purification and characterization of carbonic anhydrase from sheep kidney and effects of sulfonamides on enzyme activity” (Bioorg Med Chem, 2013)
# Experiment: Inhibition of sheep kidney esterase activity of carbonic anhydrase using 4-nitrophenylacetate as substrate after 3 mins by spectrophotometric analysis
# Design: species or system Ovis aries
row,Ki,SMILES
1,8.66 µM,NS(=O)(=O)c1ccccc1 [BENZENESULFONAMIDE]
2,2.59 µM,NS(=O)(=O)c1ccc2ccccc2c1
3,5.87 µM,NS(=O)(=O)c1ccccc1Br
4,1.35 µM,Cc1ccc(S(N)(=O)=O)cc1 [P-TOLUENESULFONAMIDE]
5,69.3 µM,Nc1ccc(S(N)(=O)=O)cc1 [SULFANILAMIDE]
